What was measured:
Lipolase = target: T1, Lipolase (Thermomyces lanuginosus, UniProt O59952); test: Enzyme stability: Lipolase-catalyzed hydrolysis monitored by pH-stat titration; assay type: biochemical; conditions: for MEAN SLOPE: Tris-HCl pH 8.0, 30° C., acid production titrated with 0.1N NaOH; for STABILITY / REL VELOCITY: Lipolase hydrolysis; for STABILITY: fold relative to α-methyl D-glucose monolaurate; for REL VELOCITY: relative to α-methyl D-glucose monolaurate = 100
T1 sequence (O59952 23-291): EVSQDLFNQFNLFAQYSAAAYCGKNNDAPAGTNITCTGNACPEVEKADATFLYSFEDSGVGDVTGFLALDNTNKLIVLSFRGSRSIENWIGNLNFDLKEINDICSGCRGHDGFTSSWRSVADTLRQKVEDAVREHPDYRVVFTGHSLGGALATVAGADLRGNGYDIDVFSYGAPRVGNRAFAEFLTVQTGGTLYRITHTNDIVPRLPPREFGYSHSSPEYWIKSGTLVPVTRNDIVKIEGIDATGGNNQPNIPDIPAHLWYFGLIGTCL
Method: Enzyme catalyzed hydrolysis of uronates was monitored using a TitraLab (Radiometer, Copenhagen) pH-stat autotitrator. Emulsified substrate was prepared by mixing water (5 mL), 1-butanol (1 mL), acacia gum (1 g), and substrate (0.357 mmoles) using a homogenizer (Omni-mixer, OCI Instruments)for 15 minutes. Emulsified substrate (5 mL) was mixed with Tris-HCl buffer (20 mL, 100 mM, pH 8.0) and equilibrated at 30° C. in a thermostatic reaction cup. Lipolase (20.5 LU) was added to initiate the reaction and the production of acid was monitored by titration with 0.1N NaOH.

[1] = Wash cycle stability (t1/2) by automatic titrator; assay type: physicochemical; conditions: 40° C., pH=10, 8.13×10^-3 M concentration; 8130 µM
Method: The wash cycle stability or half-life (t1/2) of decyl(methyl α-D-galactopyranosid)uronate was determined using an automatic titrator at 40° C., pH=10, 8.13×10^-3 M concentration.

Row | MEAN SLOPE (Lipolase; Lipolase 20.5 LU) | STABILITY (Lipolase) [X] | REL VELOCITY (Lipolase) | Wash cycle stability or half-life (t1/2) [1] [h] | Enzyme stability to lipolase hydrolysis (in words) (Lipolase; Lipolase 20.5 LU, pH 8.0, 30° C.) | Compound
1 | 1.6880 | 2.4 | 42 | – | – | CCCCCCCCCCCC(=O)OC[C@H]1OC(O)[C@H](O)[C@@H](O)[C@@H]1O (stereo partly drawn) [D-Glucose Mono-laurate, D-glucose monolaurate]
2 | – | – | – | 7.9 | – | CCCCCCCCCCOC(=O)[C@H]1O[C@H](OC)[C@H](O)[C@@H](O)[C@H]1O [Decyl(Methyl α-D-Galactopyranosid)uronate]
3 | 0.7101 | 5.6 | 18 | – | – | CCCCCCCCCCOC(=O)[C@H]1O[C@@H](OC)[C@H](O)[C@@H](O)[C@H]1O [Decyl(Methyl β-D-Galactopyranosid)uronate]
4 | – | – | – | – | very stable/slow hydrolysis | CCCCCCOC(=O)[C@H]1O[C@H](OC)[C@H](O)[C@@H](O)[C@H]1O [Hexyl(Methyl α-D-Galactopyranosid)uronate]
5 | 3.9921 | 1 | 100 | – | – | CCCCCCCCCCCC(=O)OC[C@H]1O[C@H](OC)[C@H](O)[C@@H](O)[C@@H]1O [α-Methyl D-Glucose Monolaurate, α-methyl D-glucose monolaurate]

— US5728670A, “Enzymatically stable alkyl (alkyl glycosid) uronates as nonionic surfactants and a process for their manufacture” (Lever Brothers Company, Division of Conopco, Inc., priority 1993, dated 1998)
